What all share (type): physicochemical
The nature of series [1]: Acidic ionization constant, pKa of the compound.
The nature of series [2]: Basic ionization constant, pKa of the compound.
Series [3] can be described thus: Ionization constant, pKa of compound at pH 5 to 10.
A short description of series [4]: Ionization constant, pKa of compound at pH 1 to 5.
The nature of series [5]: 1-octanol/water partition coefficient, acidic logP of compound by shake flask method.
Series [6] can be described thus: Ionization constant, pKa of compound.
Series [7] in a line: Acidic ionization constant, pKa of the compound by potentiometric titration analysis.

Usually pKa stands for the pH at which an ionisable group is half protonated. A higher pKa goes with a weaker acid or stronger base. For the compound `CC(C)CCNC(=O)c1ncccc1O`, the pKa in series [1] is 7.9; in series [2], 2.3; in series [3] it was 7.85; in series [4] it was 2.4. `O=C(NC1CCCCC1)c1ncccc1O` gave a pKa in series [2] of 2.2. On the same count and under the same terms, then `CN1C(C(=O)Nc2ccccn2)=C(O)c2sc(Cl)cc2S1(=O)=O` [LORNOXICAM], with under 2. The compound `CNC(=O)c1ccccc1O` returned a pKa in series [1] of 8. Take `CC(C)(C)NC(=O)c1ccccn1`: the pKa in series [2] was 2.1.

For `COc1ccnc(C(=O)NC2CCCCC2)c1O`, the values for the pKa in series [1] and in series [2] were 9.1 and 2.3, respectively. The corresponding values for `CN1C(C(=O)Nc2nccs2)=C(O)c2ccccc2S1(=O)=O` [SUDOXICAM] are 3.1 and under 2. Broadly, the logP is a log measure of how a compound divides between an organic and an aqueous phase. Read a low logP as a more hydrophilic compound. For the compound `CN1C(C(=O)Nc2ccccn2)=C(O)c2ccccc2S1(=O)=O` [PIROXICAM], the log partition coefficient (logP) in series [5] was found to be 4. With `Cc1ccnc(C(=O)NC2CCCCC2)c1O`, the pKa in series [1] was 8.5; in series [2] it was under 2. The compound `COc1cccc(CNC(=O)c2ncccc2OC)c1` gave a pKa in series [2] of 2.9.

For `CCOC(=O)CNC(=O)c1ncccc1O`, the pKa in series [2] worked out at 2.2. As for `N[C@@H](Cc1cc(I)c(Oc2ccc(O)c(I)c2)c(I)c1)C(=O)O` [LIOTHYRONINE], in series [5], the logP was found to be 4.1. Regarding `Cc1ncc(CO)c(CO)c1O` [PYRIDOXINE], the pKa in series [6] stood at 5.

In the case of `NC(=O)c1ncn([C@@H]2O[C@H](CO)[C@@H](O)[C@H]2O)c1O` [MIZORIBINE], the pKa in series [7] was determined as 6.5. For the compound `CCc1cc(/C(C)=N/OCc2ccc(C3CCCCC3)c(C(F)(F)F)c2)ccc1CN1CC(C(=O)O)C1` [SIPONIMOD], the lipophilicity (logP) in series [5] stood at 8.9.

Regarding `Cc1cc(NC(=O)C2=C(O)c3ccccc3S(=O)(=O)N2C)no1` [ISOXICAM], in series [2], the pKa is under 2.

`CCCC1C(=O)N2C(N(C)C)=Nc3ccc(C)cc3N2C1=O` (stereo unspecified) [APAZONE] showed a pKa in series [2] of under 2. The compound `N[C@@H](Cc1cc(I)c(Oc2cc(I)c(O)c(I)c2)c(I)c1)C(=O)O` [LEVOTHYROXINE] gave a logP in series [5] of 5.4. Turning to `O=C(NC1CCCCC1)c1nccc(Cl)c1O`, the pKa was 6.8 in series [1] and under 2 in series [2].

(Values after ChEMBL document CHEMBL5576053, “Nonclassical Zwitterions as a Design Principle to Reduce Lipophilicity without Impacting Permeability” (J Med Chem, 2024).)
